What was measured:
Format in all cases: in vivo
male ICR mouse [1] = experiment: Acetic acid-induced writhing test in mouse; conditions: po, p.o, acetic acid i.p. 1 hour after dosing, writhing counted for 10 minutes, read-out: Writhing Test Suppression of pain response
Procedure: An acetic acid-induced writhing test is one of models for measuring an analgesic effect of drugs. A test material dissolved in a suitable vehicle was orally administered to a male ICR mouse weighing 30 to 35 g at an amount of 10 mg/kg. After 1 hour of the oral administration, […] of an aqueous 0.8% acetic acid solution was intraperitoneally injected into the male ICR mouse to induce the abdominal pain of the male ICR mouse. Right after the administration of acetic acid, the male ICR mouse was put into an empty cage, and the number of writhing behaviors of the mice was counted for 10 minutes. The term “writhing” represents a reflex action in which the mouse overtly extends its abdomen by stretching its hind legs due to the abdominal pain. The analgesic effect of the test material is represented by the ‘suppression of pain response’ {[(Writhing number of vehicle-administered group−Writhing number of Test material—administered group)/(Writhing number of Solvent-administered group)]×100%}.

male ICR mouse [2] = experiment: Hot plate test in mouse; conditions: po, p.o, 1 hour after dosing, hot plate 55° C., read-out: Hot Plate Test Increase in latency of avoidance response
Procedure: A hot plate test is one of representative models for measuring an analgesic effect of drugs. A test material dissolved in a suitable vehicle was orally administered to a male ICR mouse weighing 25 to 30 g at an amount of 30 mg/kg. After 1 hour of the oral administration, the mouse was put on a hot plate (55° C.). A latency was recorded from the time right after a mouse is put on a hot plate to the time when avoidance responses (flinching, licking, jumping, etc.) to pain are observed from forefeet or rear legs of the mouse. The analgesic effect of the test material is represented by the ‘Increase in latency of avoidance response’ {[(Latency of avoidance response to pain of Test material-administered group−Latency of avoidance response to pain of vehicle-administered group)/(Latency of avoidance response to pain of Solvent-administered group)]×100%}.

male ICR mouse [3] = experiment: Elevated plus maze (EPM) test in mouse; conditions: po, p.o, 1 hour after dosing, 5 minutes observation, read-out: Elevated Plus Maze Change index in Open-Arm Time
Text: Elevated plus maze (EPM) is one of representative models that examine an anti-anxiety activity of a test material. Equipment used for an EPM test has a crossroad shape raised in a high position off the ground, and is configured in such a cliff shape that both sides of one road are protected with high walls and the other road is free from the wall. Among them, the road in the cliff shape is referred to as an ‘open arm,’ and the road protected by the walls is referred to as a ‘close arm.’ In this case, a level of the anxiety of a mouse may be measured by determining in which arm the mouse stays longer. In general, the mouse stays longer in the close arm than the open arm, but a mouse treated with a medicine showing an anti-anxiety effect stays relatively longer in the open arm. A test material dissolved in a suitable vehicle was orally administered to a male ICR mouse weighing 20 to 25 g at an amount of 10 mg/kg. After 1 hour of the oral administration, the mouse was put on the center of an EPM equipment to measure how long the mouse stays in the open arm within a time range of 5 minutes. The anti-anxiety effect of the test material is represented by the ‘Change index in Open-Arm Time’ {[(open arm duration in test material-administered group−open arm duration in vehicle-administered group)/(open arm duration in vehicle administered group)]×100%}.

male ICR mouse [4] = experiment: Head twitch potentiation induced by 5-HTP (5-HTP potentiation test) in mouse; conditions: po, 0.5 h, p.o, 5-HTP 80 mg/kg + Carbidopa 25 mg/kg i.p. 30 minutes after dosing, head twitches counted for 2 minutes, negative = 5-HT2A antagonist, read-out: 5-HTP Potentiation Increase rate in Head Twitch No.
Procedure: When 5-hydroxy-L-tryptophan (5-HTP) is administered into a mouse, a head twitch phenomenon is observed since serotonin is increasingly secreted in the mouse. […] By using this principle, it is possible to search an effect of the representative antidepressant agent. A test material dissolved in a suitable vehicle was orally administered to a male ICR mouse weighing 20 to 25 g at an amount of 30 mg/kg. After 30 minutes of the oral administration, 5-HTP (80 mg/kg) and 5-HTP peripheral decarbozylase inhibitor ‘Carbidopa’ (25 mg/kg) were intraperitoneally administered to the mouse. After 30 minutes of the intraperitoneal administration, the mouse was put into an observation cage, and head twitches of the mouse were counted for 2 minutes. The anti-depression effect of the test material is represented by the ‘Increase rate in Head Twitch No.’ {[(Head Twitch No. of Test material-administered group−Head Twitch No. of vehicle-administered group)/(Head Twitch No. of vehicle-administered group)]×100%}. […] In addition to the selective serotonin reuptake inhibitor (SSRI) that has been widely used as an antidepressant agent in the clinical fields, it was tested that 5-HT2A antagonists such as nefazodone and trazodone also have an antidepressant effect.

SMILES	inhibition in vivo at 10 mg/kg (male ICR mouse [1])	change in vivo at 30 mg/kg (male ICR mouse [2])	change in vivo at 10 mg/kg (male ICR mouse [3])	change in vivo at 30 mg/kg (male ICR mouse [4])
NC(=O)OC(CC(=O)N1CCN(c2ccc(C(F)(F)F)cc2)CC1)c1ccccc1 (stereo not shown) [Example 28, carbamic acid 3-oxo-1-phenyl-3-[4-(4-trifluoromethyl-phenyl)-piperazin-1-yl]-propyl ester]	55.6%	3.1%	-1.4%	-12.5%
NC(=O)OC(CC(=O)N1CCN(c2ccccc2)CC1)c1ccoc1 (stereo not shown) [Example 49, carbamic acid-1-furan-3-yl-3-oxo-3-(4-phenyl-piperazin-1-yl)-propyl ester]	34.4%	20.6%	48.9%	-20%
NC(=O)OC(CC(=O)N1CCN(c2ccccc2)CC1)c1cccc(Br)c1 (stereo not shown) [Example 46, carbamic acid 1-(3-bromo-phenyl)-3-oxo-3-(4-phenyl-piperazin-1-yl)-propyl ester]	71.3%	33.1%	5.7%	40.3%
NC(=O)OC(CC(=O)N1CCN(Cc2ccc(Cl)c(Cl)c2)CC1)c1ccccc1 (stereo not shown) [Example 37, carbamic acid 3-[4-(3,4-dichloro-benzyl)-piperazin-1-yl]-3-oxo-1-phenyl-propyl ester]	38.1%	10%	98.8%	167%
NC(=O)OC(CC(=O)N1CCN(c2ccccc2)CC1)c1ccc([N+](=O)[O-])cc1 (stereo not shown) [Example 34, carbamic acid 1-(4-nitro-phenyl)-3-oxo-3-(4-phenyl-piperazin-1-yl)-propyl ester]	38.4%	0.6%	6.5%	2.9%
NC(=O)O[C@H](CC(=O)N1CCN(c2ccc(Cl)cc2)CC1)c1ccccc1 [Example 61, (R)-carbamic acid 3-[4-(4-chloro-phenyl)-piperazin-1-yl]-3-oxo-1-phenyl-propyl ester]	24.1%	38.8%	-27.4%	27.3%
Cc1ccc(N2CCN(C(=O)C[C@@H](OC(N)=O)c3ccccc3)CC2)cc1 [Example 80, (R)-carbamic acid 3-[4-(4-methyl)-phenylpiperazin-1-yl]-3-oxo-1-phenyl-propyl ester]	36.3%	16.7%	41.2%	12.5%
NC(=O)OC(CC(=O)N1CCN(c2ccccc2)CC1)c1ccc(Cl)cc1 (stereo not shown) [Example 16, carbamic acid 1-(4-chloro-phenyl)-3-oxo-3-(4-phenyl-piperazin-1-yl)-propyl ester]	37.3%	19.5%	1.3%	140%
COc1ccc(N2CCN(C(=O)C[C@@H](OC(N)=O)c3ccccc3)CC2)cc1OC [Example 71, (R)-carbamic acid 3-[4-(3,4-dimethoxy-phenyl)-piperazin-1-yl]-3-oxo-1-phenyl-propyl ester]	46.5%	55.8%	125%	127%
NC(=O)OC(CC(=O)N1CCN(c2ccccc2)CC1)c1cccc(Cl)c1 (stereo not shown) [Example 51, carbamic acid 1-(3-chloro-phenyl)-3-oxo-3-(4-phenyl-piperazin-1-yl)-propyl ester]	50.8%	29.2%	-0.7%	40.3%
Cc1ccc(N2CCN(C(=O)CC(OC(N)=O)c3ccccc3)CC2)cc1C (stereo not shown) [Example 20, carbamic acid 3-[4-(3,4-dimethyl-phenyl)-piperazin-1-yl]-3-oxo-1-phenyl-propyl ester]	14.6%	45.4%	45.4%	-6.3%
NC(=O)OC(CC(=O)N1CCN(c2cc(Cl)cc(Cl)c2)CC1)c1ccccc1 (stereo not shown) [Example 10, carbamic acid 3-[4-(3,5-dichloro-phenyl)-piperazin-1-yl]-3-oxo-1-phenyl-propyl ester]	26%	14.8%	27.3%	85.7%
NC(=O)OC(CC(=O)N1CCN(CCc2ccc(Cl)c(Cl)c2)CC1)c1ccccc1 (stereo not shown) [Example 39, carbamic acid 3-{4-[2-(3,4-dichloro-phenyl)-ethyl]-piperazin-1-yl}-3-oxo-1-phenyl-propyl ester]	23.2%	18.7%	57.8%	319%
NC(=O)OC(CC(=O)N1CCN(c2ccc(F)cc2F)CC1)c1ccccc1 (stereo not shown) [Example 13, carbamic acid 3-[4-(2,4-difluoro-phenyl)-piperazin-1-yl]-3-oxo-1-phenyl-propyl ester]	64%	21.4%	12.6%	-60%
NC(=O)OC(CC(=O)N1CCN(c2ccccc2)CC1)c1ccc(F)c(F)c1 (stereo not shown) [Example 60, carbamic acid 1-(3,4-difluoro-phenyl)-3-oxo-3-(4-phenyl-piperazin-1-yl)-propyl ester]	28%	17.2%	21.3%	-23.5%
NC(=O)O[C@@H](CC(=O)N1CCN(c2ccc(F)cc2)CC1)c1ccccc1 [Example 79, (S)-carbamic acid 3-[4-(4-fluoro)-phenylpiperazin-1-yl]-3-oxo-1-phenyl-propyl ester]	40.7%	29.3%	-5.1%	-30%
NC(=O)OC(CC(=O)N1CCN(c2ccccc2)CC1)c1cccc(C(F)(F)F)c1 (stereo not shown) [Example 45, carbamic acid 1-(3-trifluormethyl-phenyl)-3-oxo-3-(4-phenyl-piperazin-1-yl)-propyl ester]	19%	6.9%	74.5%	167%
Cc1ccc(N2CCN(C(=O)C[C@H](OC(N)=O)c3ccccc3)CC2)cc1 [Example 81, (S)-carbamic acid 3-[4-(4-methyl)-phenylpiperazin-1-yl]-3-oxo-1-phenyl-propyl ester]	20.1%	9.2%	23%	-21.4%
NC(=O)OC(CC(=O)N1CCN(c2ccc(F)cc2)CC1)c1ccccc1 (stereo not shown) [Example 1, carbamic acid 3-[4-(4-fluoro-phenyl)-piperazin-1-yl]-3-oxo-1-phenyl-propyl ester]	73.5%	17%	25.6%	-65.7%

— patent publication US8901116B2, “Method for treating pain, anxiety or depression using carbamoyloxy alkanoyl piperazine compound” (SK Biopharmaceuticals Co., Ltd., priority 2007, dated 2014)
